Results published in EP4692062A1, “NOVEL AMIDE-BASED COMPOUND AND COMPOSITION COMPRISING SAME” (Amorepacific Corporation, priority 2023, dated 2024).

Experiments:
Type in all cases: biochemical
MMP-9 [1] = target: T1, MMP-9 (Homo sapiens, UniProt P14780); experiment: MMP9 Inhibitor Screening Assay Kit (ab139448), colorimetric thiopeptide substrate, OD412; conditions: T-23~34 at 0.5 uM; for inhibition at 0.5 µM: read-out: MMP-9 (%) (inhibitory efficacy, high concentration); for remaining activity at 0.5 µM: remaining enzyme activity, read-out: MMP-9 (%) (enzyme activity, high concentration)
T1 construct: purchased Abchem (so in the source)

MMP-1 = target: T2, MMP-1 (Homo sapiens, UniProt P03956); experiment: MMP1 Inhibitor Screening Assay Kit (ab139443), colorimetric thiopeptide substrate, OD412; conditions: for inhibition at 5 µM / remaining activity at 5 µM: T-23~34 at 5 uM; for inhibition at 5 µM: read-out: MMP-1 (%) (inhibitory efficacy, high concentration); for remaining activity at 0.5 µM / remaining activity at 5 µM: remaining enzyme activity; for remaining activity at 0.5 µM: untreated group = 100%, n=2; for remaining activity at 5 µM: read-out: MMP-1 (%) (enzyme activity, high concentration)
T2 construct: purchased Abchem (so in the source)
T2 sequence (P03956 100-269 limits assumed): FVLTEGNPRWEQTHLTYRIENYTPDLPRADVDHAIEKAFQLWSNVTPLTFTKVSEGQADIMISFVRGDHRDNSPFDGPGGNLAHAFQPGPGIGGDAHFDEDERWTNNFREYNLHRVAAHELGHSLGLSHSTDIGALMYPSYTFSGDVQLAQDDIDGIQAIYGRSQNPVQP
Experimental: Enzyme activity (%) at the same concentration was compared with treatment with 0.5 µM MMP-1 activity and 50 nM MMP-2 and MMP-9 activity (n=2). Here, enzyme activity (%) refers to the enzyme activity (%) of the experimental group when the untreated group is considered to have 100% enzyme activity.
To evaluate the effect of the new compound on the enzyme activity, the color change was measured by following the provided protocol using a kit sold by Abchem as follows.
As MMP activity increases, the substrate is decomposed and the OD412 level increases. Therefore, the change in OD412 level (OD value) per minute was measured and the value was obtained according to the enzyme activity calculation formula below. […] (ε=13,600 M^-1cm^-1 above pH 6.0)
New compound enzyme activity(%) = (Vnew compound/Vuntreated group)*100 [formula] V = change in OD value per minute

MMP-2 [2] = target: T3, MMP-2 (Homo sapiens, UniProt P08253); experiment: MMP2 Inhibitor Screening Assay Kit (ab139446), colorimetric thiopeptide substrate, OD412; conditions: T-23~34 at 0.5 uM; for inhibition at 0.5 µM: read-out: MMP-2 (%) (inhibitory efficacy, high concentration); for remaining activity at 0.5 µM: remaining enzyme activity, read-out: MMP-2 (%) (enzyme activity, high concentration)
T3 construct: purchased Abchem (so in the source)
T3 sequence (P08253 110-660): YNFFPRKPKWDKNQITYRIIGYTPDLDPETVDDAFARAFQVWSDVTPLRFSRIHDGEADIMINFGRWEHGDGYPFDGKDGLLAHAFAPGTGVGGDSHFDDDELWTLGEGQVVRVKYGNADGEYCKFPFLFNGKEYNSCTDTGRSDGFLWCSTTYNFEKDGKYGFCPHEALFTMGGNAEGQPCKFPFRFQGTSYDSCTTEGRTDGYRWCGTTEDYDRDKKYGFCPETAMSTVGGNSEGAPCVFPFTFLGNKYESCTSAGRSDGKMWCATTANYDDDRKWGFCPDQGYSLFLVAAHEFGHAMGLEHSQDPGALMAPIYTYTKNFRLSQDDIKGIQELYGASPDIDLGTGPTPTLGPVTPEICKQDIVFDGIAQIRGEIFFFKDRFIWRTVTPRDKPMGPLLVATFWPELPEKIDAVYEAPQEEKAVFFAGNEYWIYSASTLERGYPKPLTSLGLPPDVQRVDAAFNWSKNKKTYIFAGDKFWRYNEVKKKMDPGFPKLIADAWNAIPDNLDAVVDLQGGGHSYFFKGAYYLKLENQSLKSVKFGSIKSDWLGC

MMP-9 [3] = target: T1, MMP-9; experiment: MMP9 Inhibitor Screening Assay Kit (ab139448), colorimetric thiopeptide substrate, OD412; conditions: compound at 50 nM; for remaining activity at 0.05 µM: remaining enzyme activity, untreated group = 100%, n=2
Experimental: Enzyme activity (%) at the same concentration was compared with treatment with 0.5 µM MMP-1 activity and 50 nM MMP-2 and MMP-9 activity (n=2). Here, enzyme activity (%) refers to the enzyme activity (%) of the experimental group when the untreated group is considered to have 100% enzyme activity. To evaluate the effect of the new compound on the enzyme activity, the color change was measured by following the provided protocol using a kit sold by Abchem as follows. Enzyme activity was obtained by comparing absorbance per minute with the untreated group. • MMP1 Inhibitor Screening Assay Kit (ab139443) • MMP2 Inhibitor Screening Assay Kit (ab139446) • MMP9 Inhibitor Screening Assay Kit (ab139448) As MMP activity increases, the substrate is decomposed and the OD412 level increases. Therefore, the change in OD412 level (OD value) per minute was measured and the value was obtained according to the enzyme activity calculation formula below. Here, OD412 means optical density or absorbance at 412 nm. • Thiopeptide (Ac-PLG-[2-mercapto-4-methyl-pentanoyl]-LG-OC2H5) as a chromogenic substrate. • The MMP cleavage site peptide bond was replaced by the thioester bond of the thiopeptide. • Hydrolysis of this bond by MMP generates a sulfhydryl group, which reacts with DTNB [5,5'-dithiobis(2-nitrobenzoic acid), Ellman's reagent] to form 2-nitro-5-thiobenzoic acid. , which can be measured by its absorbance at 412 nm. (ε=13,600 M^-1cm^-1 above pH 6.0) New compound enzyme activity(%) = (Vnew compound/Vuntreated group)*100 [formula] V = change in OD value per minute

MMP-2 [4] = target: T3, MMP-2; experiment: MMP2 Inhibitor Screening Assay Kit (ab139446), colorimetric thiopeptide substrate, OD412; conditions: compound at 50 nM; for remaining activity at 0.05 µM: remaining enzyme activity, untreated group = 100%, n=2
Experimental: Enzyme activity (%) at the same concentration was compared with treatment with 0.5 µM MMP-1 activity and 50 nM MMP-2 and MMP-9 activity (n=2). Here, enzyme activity (%) refers to the enzyme activity (%) of the experimental group when the untreated group is considered to have 100% enzyme activity. To evaluate the effect of the new compound on the enzyme activity, the color change was measured by following the provided protocol using a kit sold by Abchem as follows. […] Therefore, the change in OD412 level (OD value) per minute was measured and the value was obtained according to the enzyme activity calculation formula below. […] (ε=13,600 M^-1cm^-1 above pH 6.0) New compound enzyme activity(%) = (Vnew compound/Vuntreated group)*100 [formula] V = change in OD value per minute

T1 sequence (P14780 94-707): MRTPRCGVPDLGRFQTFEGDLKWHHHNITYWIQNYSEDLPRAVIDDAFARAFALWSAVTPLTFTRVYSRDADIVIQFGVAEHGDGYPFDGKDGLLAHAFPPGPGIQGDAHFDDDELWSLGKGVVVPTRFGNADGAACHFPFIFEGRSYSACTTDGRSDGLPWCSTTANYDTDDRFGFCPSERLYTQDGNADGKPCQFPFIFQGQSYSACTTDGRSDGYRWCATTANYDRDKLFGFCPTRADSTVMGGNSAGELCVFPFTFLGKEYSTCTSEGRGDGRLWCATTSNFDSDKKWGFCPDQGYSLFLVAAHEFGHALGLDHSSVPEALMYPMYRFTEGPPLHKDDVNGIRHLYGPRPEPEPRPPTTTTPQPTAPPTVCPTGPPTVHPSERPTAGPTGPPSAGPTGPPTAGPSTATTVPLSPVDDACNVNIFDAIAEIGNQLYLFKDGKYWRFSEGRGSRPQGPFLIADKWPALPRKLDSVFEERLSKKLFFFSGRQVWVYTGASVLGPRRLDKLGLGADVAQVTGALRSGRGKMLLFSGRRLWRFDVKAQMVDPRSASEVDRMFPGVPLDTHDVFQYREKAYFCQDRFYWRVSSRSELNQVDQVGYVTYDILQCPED

SMILES | inhibition at 0.5 µM (MMP-9 [1]) [%] | remaining activity at 0.5 µM (MMP-9 [1]) [%] | inhibition at 5 µM (MMP-1; inhibition) [%] | remaining activity at 0.5 µM (MMP-1; compound at 0.5 uM) [%] | remaining activity at 5 µM (MMP-1) [%] | inhibition at 0.5 µM (MMP-2 [2]) [%] | remaining activity at 0.5 µM (MMP-2 [2]) [%] | remaining activity at 0.05 µM (MMP-9 [3]) [%] | remaining activity at 0.05 µM (MMP-2 [4]) [%] | inhibition at 0.5 µM (MMP-1; inhibition, compound at 0.5 uM, read-out: MMP-1 (%) at 0.5 uM (inhibitory activity)) [%] | inhibition at 0.05 µM (MMP-2 [4]; inhibition, read-out: MMP-2 (%) at 50 nM (inhibitory activity)) [%] | inhibition at 0.05 µM (MMP-9 [3]; inhibition, read-out: MMP-9 (%) at 50 nM (inhibitory activity)) [%]
CC(=O)c1ccc(S(=O)(=O)N2CCCC2C(=O)NO)cc1 (stereo not drawn) [T-34, 1-((4-acetylphenyl)sulfonyl)-N-hydroxypyrrolidine-2-carboxamide] | 30.1 | 69.9 | 58.2 | 100 | 41.8 | 37.8 | 62.2 | 100 | 100 | – | – | –
CC(C)(C)c1ccc(S(=O)(=O)N2CCCC2C(=O)NO)cc1 (stereo not drawn) [T-28, 1-((4-(tert-butyl)phenyl)sulfonyl)-N-hydroxypyrrolidine-2-carboxamide] | 0 | 100 | 0 | 100 | 100 | 0 | 100 | 100 | 100 | – | – | –
CC(=O)Nc1ccc(S(=O)(=O)N2CCCCC2C(=O)NO)cc1 (stereo not drawn) [T-25, 1-((4-acetamidophenyl)sulfonyl)-N-hydroxypiperidine-2-carboxamide] | 20.6 | 79.4 | 14.2 | 100 | 85.8 | 38.3 | 61.7 | 100 | 100 | 0 | 0 | –
O=C(NO)C1CCCN1S(=O)(=O)c1ccc(C23CC4CC(CC(C4)C2)C3)cc1 (stereo not drawn) [T-32, 1-((4-((3r,5r,7r)-adamantan-1-yl)phenyl)sulfonyl)-N-hydroxypyrrolidine-2-carboxamide] | 11.9 | 88.1 | 0 | 100 | 100 | 7.6 | 92.4 | 100 | 100 | – | – | –
CCCc1ccc(S(=O)(=O)N2CCCC2C(=O)NO)cc1 (stereo not drawn) [T-33, N-hydroxy-1-((4-propylphenyl)sulfonyl)pyrrolidine-2-carboxamide] | 22.2 | 77.8 | 26.1 | 100 | 73.9 | 26.3 | 73.7 | 100 | 90.5 | – | – | 0
O=C(NO)C1CCCCN1S(=O)(=O)c1ccc(C23CC4CC(CC(C4)C2)C3)cc1 (stereo not drawn) [T-23, 1-((4-((3r,5r,7r)-adamantan-1-yl)phenyl)sulfonyl)-N-hydroxypiperidine-2-carboxamide] | 0 | 100 | 0 | 100 | 100 | 0 | 100 | 100 | 100 | – | – | –
